These results are taken from article PMC10733307, “Dual species sphingosine-1-phosphate lyase inhibitors to combine antifungal and anti-inflammatory activities in cystic fibrosis: a feasibility study” (Scientific Reports, 2023).

For data set [1], the target named is T1, AfuSPL (Aspergillus fumigatus, UniProt Q4WPU3).
T1 construct: gene AFUA_4G10470; cytosolic catalytic domain, Δ1-81, C-terminal His tag, pET28, E. coli BL21 with GroEL/GroES (pGro7), about 50 kDa subunit, dimer
T1 sequence (Q4WPU3 82-572): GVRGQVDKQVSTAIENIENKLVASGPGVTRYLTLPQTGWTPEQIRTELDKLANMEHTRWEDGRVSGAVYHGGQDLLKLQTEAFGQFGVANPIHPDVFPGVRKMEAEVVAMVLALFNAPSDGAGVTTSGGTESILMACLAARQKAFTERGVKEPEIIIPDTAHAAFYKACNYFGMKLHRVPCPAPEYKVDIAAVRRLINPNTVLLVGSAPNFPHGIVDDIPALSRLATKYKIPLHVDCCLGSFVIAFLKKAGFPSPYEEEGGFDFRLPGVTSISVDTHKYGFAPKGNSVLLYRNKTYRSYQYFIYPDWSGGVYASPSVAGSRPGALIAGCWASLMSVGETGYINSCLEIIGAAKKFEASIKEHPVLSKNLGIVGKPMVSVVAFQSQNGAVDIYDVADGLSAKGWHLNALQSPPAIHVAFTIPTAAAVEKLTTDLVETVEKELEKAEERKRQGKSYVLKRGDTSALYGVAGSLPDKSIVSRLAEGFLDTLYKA
The data set is described as follows: fluorimetric lyase assay. It is filed as biochemical. The following applies: 1 mM inhibitor, fluorogenic S1P substrate, pH 7.4, 37 °C.

The target in data set [2] is T2, hSPL (Homo sapiens, UniProt O95470).
T2 construct: gene SGPL1
T2 sequence (O95470 81-568): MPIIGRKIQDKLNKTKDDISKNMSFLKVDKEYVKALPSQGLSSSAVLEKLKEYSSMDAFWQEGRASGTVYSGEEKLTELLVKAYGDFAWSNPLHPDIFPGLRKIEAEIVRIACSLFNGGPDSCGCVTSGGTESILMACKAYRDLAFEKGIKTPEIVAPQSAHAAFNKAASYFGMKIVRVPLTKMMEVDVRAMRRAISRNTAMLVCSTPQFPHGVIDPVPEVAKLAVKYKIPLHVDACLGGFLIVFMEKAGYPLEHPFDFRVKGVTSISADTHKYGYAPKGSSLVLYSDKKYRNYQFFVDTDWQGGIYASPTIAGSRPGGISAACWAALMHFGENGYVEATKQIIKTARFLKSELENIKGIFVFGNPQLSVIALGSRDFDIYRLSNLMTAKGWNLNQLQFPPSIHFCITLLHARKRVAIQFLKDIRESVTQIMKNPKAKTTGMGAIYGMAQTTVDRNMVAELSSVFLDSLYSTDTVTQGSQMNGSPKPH
The data set is described as follows: fluorimetric lyase assay, global fit to competitive inhibition model. It counts as biochemical. The source says: fluorimetric lyase assay, global fit to competitive inhibition model on hSPL | From a global fitting of the data we estimated their KI values

The target in data set [3] is T1, AfuSPL. Described as above. It counts as biochemical. The source says: fluorimetric lyase assay, global fit to competitive inhibition model on AfuSPL | From a global fitting of the data we estimated their KI values
The subject of data set [4] is N[C@@H](COP(=O)(O)O)[C@H](O)CCOc1ccc2ccc(=O)oc2c1. In words: purified protein. The following applies: 100 mM Hepes pH 7.4, 0.1 mM EDTA, 0.05% Triton X-100, 100 μM PLP, 37 °C.

As to `C[C@@H]1CN(c2nnc(Cc3ccccc3)c3ccc(Cl)cc23)CCN1c1ccc(C#N)cn1` [30J, 6-[(2R)-4-(4-benzyl-7-chlorophthalazin-1-yl)-2-methylpiperazin-1-yl]pyridine-3-carbonitrile], the “% inhibition at 1 mM” value in data set [1] is recorded as “without any significant effect on the activity of AfuSPL”.

Regarding `CCCOC(=O)c1c(NC(=O)CCCC(=O)Nc2sc3c(c2C(=O)OCCC)CCCCC3)sc2c1CCCCC2` [C17], the inhibition constant Ki in data set [2] amounted to 240 ± 50 µM; in data set [3], 270 ± 80 µM. As for AfuSPL (Aspergillus fumigatus Af293), in data set [4], the Km amounted to 3.1 ± 0.4 mM and the turnover number (kcat) was 0.103 ± 0.007 s⁻¹.

The Ki is a measure of affinity in units of concentration, obtained from inhibition or displacement. The Km is the concentration of substrate that gives half-maximal velocity. Broadly, the kcat is the number of substrate molecules converted per active site and unit of time at saturation.
